Measured values: PubChem BioAssay AID1963853 (Molecular Pharmacology Branch, DTP, NCI, 2024)
pIC50: −log10 of the molar value.

Tested on: 266295-075-R-J1-PDC spheroid viability
Assay: Anticancer human tumor 266295-075-R-J1-PDC patient-derived head and neck squamous carcinoma cell line growth inhibition [POLQ]
Conditions: spheroids with HUVEC and MSC; for pIC50: curve of first compound; for viability, T/C: stronger effect = lower value
How it was run: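 Patient-derived tumour cells were co-cultured with HUVEC and mesenchymal stem cells as multicellular spheroids at 37 °C. They were treated with POLQ inhibitors (novobiocin, ART-558, RP6685) alone or combined with other agents. Top concentrations were at or near clinical Cmax (otherwise 10 microM; SN-38 at 1 microM), decreasing in half-log steps.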

[1] = second compound 0.0316 µM, first compound 0.0316 µM
[2] = second compound 0.0316 µM, first compound 0.1 µM
[3] = second compound 0.0316 µM, first compound 0.316 µM
[4] = second compound 0.0316 µM, first compound 1 µM
[5] = second compound 0.1 µM, first compound 0.0316 µM
[6] = second compound 0.1 µM, first compound 0.1 µM
[7] = second compound 0.1 µM, first compound 0.316 µM
[8] = second compound 0.1 µM, first compound 1 µM
[9] = second compound 0.316 µM, first compound 0.0316 µM
[10] = second compound 0.316 µM, first compound 0.1 µM
[11] = second compound 0.316 µM, first compound 0.316 µM
[12] = second compound 0.316 µM, first compound 1 µM
[13] = second compound 1 µM, first compound 0.0316 µM
[14] = second compound 1 µM, first compound 0.1 µM
[15] = second compound 1 µM, first compound 0.316 µM
[16] = second compound 1 µM, first compound 1 µM
[17] = second compound 3.16 µM, first compound 0.0316 µM
[18] = second compound 3.16 µM, first compound 0.1 µM
[19] = second compound 3.16 µM, first compound 0.316 µM
[20] = second compound 3.16 µM, first compound 1 µM
[21] = second compound 10 µM, first compound 0.0316 µM
[22] = second compound 10 µM, first compound 0.1 µM
[23] = second compound 10 µM, first compound 0.316 µM
[24] = second compound 10 µM, first compound 1 µM
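Also: spheroids exposed to compounds for seven days before readout.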

C=CCn1c(=O)c2cnc(Nc3ccc(N4CCN(C)CC4)cc3)nc2n1-c1cccc(C(C)(C)O)n1 + Nc1ccc(C#CCN(C(=O)Cc2ncc(C(F)(F)F)cc2C(F)(F)F)c2ccc(F)cc2)nn1
pIC50 (second compound 0.0316 µM): < 6.00 | pIC50 (second compound 0.1 µM): < 6.00 | pIC50 (second compound 0.316 µM): < 6.00 | pIC50 (second compound 1 µM): < 6.00 | pIC50 (second compound 3.16 µM): < 6.00 | pIC50 (second compound 10 µM): < 6.00 | viability, T/C (second compound 0.0316 µM, first compound 0.00316 µM): 102% | viability, T/C (second compound 0.0316 µM, first compound 0.01 µM): 90.4% | viability, T/C [1]: 101% | viability, T/C [2]: 89.2% | viability, T/C [3]: 86.2% | viability, T/C [4]: 63.8% | viability, T/C (second compound 0.1 µM, first compound 0.00316 µM): 114% | viability, T/C (second compound 0.1 µM, first compound 0.01 µM): 95.8% | viability, T/C [5]: 88.1% | viability, T/C [6]: 125% | viability, T/C [7]: 84.1% | viability, T/C [8]: 68.8% | viability, T/C (second compound 0.316 µM, first compound 0.00316 µM): 98.7% | viability, T/C (second compound 0.316 µM, first compound 0.01 µM): 99.1% | viability, T/C [9]: 84.1% | viability, T/C [10]: 85.2% | viability, T/C [11]: 69.3% | viability, T/C [12]: 65.3% | viability, T/C (second compound 1 µM, first compound 0.00316 µM): 93% | viability, T/C (second compound 1 µM, first compound 0.01 µM): 96.2% | viability, T/C [13]: 87.7% | viability, T/C [14]: 101% | viability, T/C [15]: 81.3% | viability, T/C [16]: 54.3% | viability, T/C (second compound 3.16 µM, first compound 0.00316 µM): 102% | viability, T/C (second compound 3.16 µM, first compound 0.01 µM): 106% | viability, T/C [17]: 85.2% | viability, T/C [18]: 77.3% | viability, T/C [19]: 72.4% | viability, T/C [20]: 63.5% | viability, T/C (second compound 10 µM, first compound 0.00316 µM): 115% | viability, T/C (second compound 10 µM, first compound 0.01 µM): 90.6% | viability, T/C [21]: 91.5% | viability, T/C [22]: 109% | viability, T/C [23]: 81.2% | viability, T/C [24]: 57.3%

CC1COCCN1c1cc(C2(S(C)(=N)=O)CC2)nc(-c2ccnc3[nH]ccc23)n1 (centres undefined) + Nc1ccc(C#CCN(C(=O)Cc2ncc(C(F)(F)F)cc2C(F)(F)F)c2ccc(F)cc2)nn1
pIC50 (second compound 0.0316 µM): < 5.00 | pIC50 (second compound 0.1 µM): < 5.00 | pIC50 (second compound 0.316 µM): 5.07 | pIC50 (second compound 1 µM): 5.03 | pIC50 (second compound 3.16 µM): < 5.00 | pIC50 (second compound 10 µM): < 5.00 | viability, T/C [1]: 110% | viability, T/C [2]: 93.3% | viability, T/C [3]: 83.4% | viability, T/C [4]: 75.5% | viability, T/C (second compound 0.0316 µM, first compound 3.16 µM): 67.5% | viability, T/C (second compound 0.0316 µM, first compound 10 µM): 63% | viability, T/C [5]: 102% | viability, T/C [6]: 116% | viability, T/C [7]: 92% | viability, T/C [8]: 93.9% | viability, T/C (second compound 0.1 µM, first compound 3.16 µM): 80.2% | viability, T/C (second compound 0.1 µM, first compound 10 µM): 57.2% | viability, T/C [9]: 81.9% | viability, T/C [10]: 102% | viability, T/C [11]: 92.5% | viability, T/C [12]: 79% | viability, T/C (second compound 0.316 µM, first compound 3.16 µM): 78.4% | viability, T/C (second compound 0.316 µM, first compound 10 µM): 45.6% | viability, T/C [13]: 97.8% | viability, T/C [14]: 109% | viability, T/C [15]: 96.6% | viability, T/C [16]: 87.6% | viability, T/C (second compound 1 µM, first compound 3.16 µM): 67.6% | viability, T/C (second compound 1 µM, first compound 10 µM): 48.9% | viability, T/C [17]: 89.9% | viability, T/C [18]: 141% | viability, T/C [19]: 100% | viability, T/C [20]: 92.8% | viability, T/C (second compound 3.16 µM, first compound 3.16 µM): 69.4% | viability, T/C (second compound 3.16 µM, first compound 10 µM): 57.3% | viability, T/C [21]: 95.4% | viability, T/C [22]: 99% | viability, T/C [23]: 95.5% | viability, T/C [24]: 92.7% | viability, T/C (second compound 10 µM, first compound 3.16 µM): 70.6% | viability, T/C (second compound 10 µM, first compound 10 µM): 62.9%
